Measured values reported in US20230383261A1, “HEPATOCYTE-LIKE CELLS” (Sana Biotechnology, Inc., priority 2020, published 2023).
One block for each compound: values may come before it.

Tests used:
Format in all cases: cell-based, human
[1] = tested on: hepatocyte maturation genes and urea cycle genes in hepatocyte-like cells; test: Taqman qPCR gene expression, 3D differentiation protocol with or without forskolin; settings: 10 μM forskolin days 28 to 35, vs untreated
Method: In the process, the pluripotent stem cells differentiate through different stages including a definitive endoderm stage, an anterior definitive endoderm stage, a foregut endoderm stage, a hepatic endoderm stage, an immature hepatocyte stage, and a mature hepatocyte stage. […] All pluripotent cell lines robustly differentiated in the endoderm lineage in the 3D format, with all cell lines achieving a target efficiency of 90% CXCR4 expressing cells. Gene expression analysis was performed on hepatocyte-like cells produced by either (i) a 3D differentiation protocol or (ii) a 3D differentiation protocol with the addition of 10 μM forskolin from days 28 to day 35. Duplicate RNA samples were isolated at selected time point of the differentiation and gene expression was analyzed by Taqman qPCR.

hepatocyte-like cells [2] = test: ureagenesis after ammonia challenge (Urea Assay Kit); settings: day 35, seven-day forskolin
Method: Human iPSCs were differentiated to hepatocyte-like cells essentially as described in […] et al., Nature Prot. 8(2):430-437 (2013) (Protocol A) or Blackford et al., Stem Cells Transl Med. 8(2):124-137 (2019) (Protocol B) with the following modifications: cells were maintained in the final medium until a total culture time of 35 days and HepatoZYME basal medium was substituted in Protocol B starting at day 8. Forskolin was added to the final medium at a concentration of […] on day 21 (Protocol A) or day 28 (Protocols A and B). Expression of hepatocyte and urea cycle genes was measured by qPCR and/or fluorescent Western blot analysis. Ureagenesis of the cells was assayed using Urea Assay Kit (BioChain). Ureagenesis activity was measured in day 35 cells from Protocol A and Protocol B following seven-day treatment with forskolin, following challenge of the hepatocyte-like cells with 0-16 mM ammonia. […] For Protocol A, ureagenesis activity peaked at stimulation with 5 mM ammonia treatment at about 20 nmol/min/10^6 cells, and levels were observed higher than those seen using primary human hepatocytes. For […], ureagenesis activity peaked at stimulation with 10 mM ammonia at a level similar to primary human hepatocytes, about 3 nmol/min/10^6 cells.

[3] = tested on: hepatocyte-specific genes and urea cycle enzyme genes; test: gene expression in differentiation methods A, B and C with forskolin; settings: forskolin at days 21-35 or 30-35 (3D) or days 28-35 (2D)
Method: This example provides urea cycle gene expression of hepatocyte-like cells differentiated using three different methods, such as a 3D differentiation method with forskolin treatment at days 21-35 (method A), a 3D differentiation method with forskolin treatment at days 30-35 (method B), and a 2D differentiation method with forskolin treatment at days 28-35 (method C). The expression of the following genes were measured: alpha fetoprotein (AFP), albumin (ALB), arginase 1 (ARG1), asialoglycoprotein receptor 1 (ASGR1), agininosuccinate lyase (ASL), argininosuccinate synthase 1 (ASS1), carbamoyl-phosphate synthase 1 (CPS1), glucose-6-phosphatase (G6PC), hepatocyte nuclear factor 4 alpha (HNF4a), keratin type I cytoskeletal 18 (KRT18), […] (NAGS), ornithine transcarbamylase (OTC), and SOX9. Expression of cardiac-specific markers NKX2.5 and TNNT2 were used as a negative expression control.
In this study, forskolin treatment was included at days 21-35 of the 3D hepatocyte differentiation process outlined above, at days 30-35 of the 3D hepatocyte differentiation process outlined above, or days 28-35 of the 2D hepatocyte differentiation process outlined above. Gene expression of numerous hepatocyte and urea cycle markers was measured at different time points.

hepatocyte-like cells [4] = test: urea production assay at day 35, 2D differentiation with forskolin; settings: forskolin about 5 μM to about 10 μM after the first 26 days, read at day 35
Method: Mature hepatocyte-like cells were differentiated from human pluripotent stem cells using a 2D differentiation protocol for the first 26 days of differentiation, and then the immature hepatocyte-like cells were cultured in media containing forskolin (ranging from about 5 μM to about 10 μM). At day 35, the activity for the hepatocytes was determined using a urea production assay.

[5] = tested on: hepatocyte and urea cycle genes in hepatocyte-like cells; test: qPCR expression of hepatocyte and urea cycle genes in iPSC-derived hepatocyte-like cells (Protocols A and B)
Method: Human iPSCs were differentiated to hepatocyte-like cells essentially as described in […] et al., Nature Prot. 8(2):430-437 (2013) (Protocol A) or Blackford et al., Stem Cells Transl Med. 8(2):124-137 (2019) (Protocol B) with the following modifications: cells were maintained in the final medium until a total culture time of 35 days and HepatoZYME basal medium was substituted in Protocol B starting at day 8. Forskolin was added to the final medium at a concentration of […] on day 21 (Protocol A) or day 28 (Protocols A and B). Expression of hepatocyte and urea cycle genes was measured by qPCR and/or fluorescent Western blot analysis. Ureagenesis of the cells was assayed using Urea Assay Kit (BioChain).

[6] = tested on: CYP3A4 activity in hepatocyte-like cells; test: CYP3A4 enzyme activity assay of hepatocyte maturation, media with or without HGF; settings: absence of HGF in the culture media after the first 14 days of 2D differentiation, vs media containing HGF
Method: Mature hepatocyte-like cells were differentiated from human pluripotent stem cells using a 2D differentiation protocol for the first 14 days of differentiation, and then the cells were cultured in media lacking recombinant HGF. At day 14, hepatocytes at the hepatic endoderm stage were dissociated and seeded into these plates in fully supplemented HepatoZYME-SFM media. 24 hours later the cells were cultured and maintained in media lacking recombinant HGF. Hepatocyte maturation was determined using a CYP3A4 enzyme activity assay.

hPSC-Heps spheroids = settings: for ammonia detoxification: media containing ammonia; for ammonia detoxification with excess arginine: media containing ammonia and arginine
Method: Human pluripotent stem cell-derived hepatocytes (hPSC-Heps) were obtained after 21 days of differentiation using a 2D adherent protocol. At day 21 the hPSC-Heps were aggregated into spheroids, and then encapsulated within alginate 48 hours later. The spheroids including the alginate encapsulated spheroids were cultured for 14 days in either vitamin K1, vitamin K2 MK4, […], vitamin E, or a combination of all. The spheroids were cultured at a concentration of about 1×10^6 encapsulated cells/ml for the culture period.

expression of hepatocyte maturation genes and urea cycle genes [1]: increases in expression
expression of hepatocyte-specific and urea cycle enzyme genes including ALB, ARG1, ASGR1, ASL, CPS1, G6PC, HNF4a and/or NAGS [3]: increased expression
ureagenesis activity of the differentiated mature hepatocyte (hepatocyte-like cells [4]): enhanced the ureagenesis activity
expression of hepatocyte-like cell genes (HNF4a, AFP, ALB, ASGR1) ([5]; Protocol A, forskolin 10 mM in medium at days 21-28, vs cells without forskolin, qPCR): no significant effect
enhancement of hepatocyte-like cell gene (HNF4a, ALB, ASGR1) expression ([5]; Protocol B, forskolin 10 mM at days 28-35, read at day 35, vs cells without forskolin): 2-4 fold
Compound: C=C[C@@]1(C)CC(=O)[C@]2(O)[C@@]3(C)[C@@H](O)CCC(C)(C)[C@@H]3[C@H](O)[C@H](OC(C)=O)[C@@]2(C)O1 [forskolin]
peak ureagenesis activity (hepatocyte-like cells [2]; Protocol A, stimulation with 5 mM ammonia, higher than primary human hepatocytes): about 20 nmol/min/10^6 cells
peak ureagenesis activity (hepatocyte-like cells [2]; printed Protocol A (second mention), stimulation with 10 mM ammonia, similar to primary human hepatocytes): about 3 nmol/min/10^6 cells
increase in urea cycle gene CPS1 ([5]; Protocol A, forskolin 10 mM at days 21-28, vs cells without forskolin, qPCR): 5-8 fold

Compound: HGF: recombinant hepatocyte growth factor in culture media
hepatocyte maturation (CYP3A4 enzyme activity) [6]: enhanced hepatocyte maturation

Compound: CC(C)=CCC/C(C)=C/CC/C(C)=C/CC/C(C)=C/CC/C(C)=C/CC/C(C)=C/CC/C(C)=C/CC1=C(C)C(=O)c2ccccc2C1=O [vitamin K2 MK7]
functional maturation status of the hepatocytes (urea synthesis) (hPSC-Heps spheroids): increased the functional maturation status

Compound: CC1=C(C/C=C(\C)CCC[C@H](C)CCC[C@H](C)CCCC(C)C)C(=O)c2ccccc2C1=O [vitamin K1]
functional maturation status of the hepatocytes (urea synthesis) (hPSC-Heps spheroids): increased the functional maturation status
ammonia detoxification (hPSC-Heps spheroids): more effective at detoxifying ammonia
ammonia detoxification with excess arginine (hPSC-Heps spheroids): detoxified ammonia even faster

Compound: CC(C)=CCC/C(C)=C/CC/C(C)=C/CC/C(C)=C/CC1=C(C)C(=O)c2ccccc2C1=O [vitamin K2 MK4]
functional maturation status of the hepatocytes (urea synthesis) (hPSC-Heps spheroids): increased the functional maturation status

Compound: CC(C)=CCC/C(C)=C/CC/C(C)=C/CC/C(C)=C/CC1=C(C)C(=O)c2ccccc2C1=O [vitamin K2]
ammonia detoxification (hPSC-Heps spheroids): more effective at detoxifying ammonia
ammonia detoxification with excess arginine (hPSC-Heps spheroids): detoxified ammonia even faster
